Measurements published in US20250186411A1, “Methods of Treating Disorders Associated with Overactivation of IKKB” (The United States Government as represented by the …, priority 2023, published 2025).
Values joined by “and” are separate entries in the source; they are usually repeats but may differ in a detail not shown here. Equal entries are not always repeated.

Columns and labels:
[1] = test system: Tg26 mice; experiment: HIV-1 transgenic (Tg26) model; type: in vivo, mouse
Experimental: (§1) Urine albumin was quantified by ELISA using a kit from Bethyl Laboratory Inc. Urine creatinine levels were measured in the same samples using the Creatinine Colorimetric Assay Kit (500701; Cayman Chemical) as per manufacturer's protocol.
(§2) Briefly formalin-fixed and paraffin embedded sections were deparaffinized, and endogenous peroxidase was inactivated with H2O2. All kidney sections from these mice were prepared in identical fashion. Immunofluorescence was performed using rabbit anti-KLF15, mouse anti-WT1 (Santa Cruz, SC-7385), rabbit anti-Synaptopodin (Sigma, SAB3500585), rabbit anti-p65 (Cell Signaling Tech, 8242S) antibodies. After washing, sections were incubated with the appropriate fluorophore-linked secondary antibody (Alexa Fluor 647 Donkey anti-mouse, Alexa Fluor 568 Donkey anti-rabbit antibodies, Life Technologies). After counter staining with Hoechst (Thermo Fisher Scientific), slides were mounted in Prolong Gold mounting media (Thermo Fisher Scientific) and photographed under a Nikon Eclipse Ni-E Fully Motorized Microscope System with a DS-Qi2 digital camera.
(§3) Quantification of KLF15 staining in the podocytes was determined by quantifying the intensity of KLF15 staining (optical density) in WT1+Hoechst staining using ImageJ 1.53c software (National Institute of Health, http://imagej.nih.gov/ij).
(§4) Mice were perfused with PBS, and the kidneys were fixed in 10% phosphate buffered formalin overnight and switched to 70% ethanol before processing for histology. Kidney tissue was embedded in paraffin by Stony Brook Medicine Research Histology Core Laboratory (RHCL)—Department of Pathology and 4-μm-thick sections were stained with periodic acid-Schiff (PAS), hematoxylin & eosin (H&E), and masson's trichrome (Sigma-Aldrich). Quantification of % FSGS was determined by renal pathology in a blinded fashion (Huntsman Cancer Institute-University of Utah Health).

[2] = test system: FVB/n mice; experiment: Nephrotoxic Serum Nephritis (NTS) model; type: in vivo, mouse
Experimental: In the Nephrotoxic Serum Nephritis (NTS) model, 8-week-old FVB/n mice were initially sensitized with an intraperitoneal injection of 0.5 mg of sheep IgG (IP, Jackson ImmunoResearch) with complete Freund's adjuvant (IP, Millipore Sigma). Five days later, mice were administered 100 μl of NTS (IP, ProbeTex), as previously described (Estrada et al. (2018) JCI Insight 3). […] Urine was collected and mice were euthanized at day 7 or day 14 post-NTS treatment.
as §1, §2, §3, §4

[3] = test system: NF-κB signaling (p50, p65, IκBα)
Source text: Differentiated human podocytes were lysed with a fractionation buffer containing 1× protease and phosphatase inhibitor cocktail (Thermo Fisher Scientific) and separate cytoplasmic and nuclear fractions using a modified procedure described before (72).

[4] = test system: KLF15 promoter (pEZX-FR03hKLF15p human podocytes); experiment: Half maximal effective concentration (EC50) of KLF15 reporter activity; type: cell-based; details: KLF15 reporter activity, dose-response; read-out: EC50
Experimental: The EC50 was determined using nonlinear regression and then choosing the equation of Sigmoidal function, 4PL method (X is log(concentration); or the equation of log(agonist) vs. response—variable slope).
To identify small molecule inducers of KLF15 expression in human podocytes, human podocytes were generated with a dual reporter, firefly luciferase directed at the KLF15 promoter region and renilla luciferase (pEZX-FR03hKLF15p). […] The positive controls were inducers of KLF15 expression, dexamethasone (DEX) and all-trans retinoic acid (atRA), and […] and cell-free wells served as negative controls.

[5] = test system: KLF15 promoter with mutation in the GRE (pEZX-FR03hKLF5p-mutant podocytes); experiment: GR-mutant KLF15 reporter assay; type: cell-based, human; details: as compared to DMSO
[6] = test system: differentiated human podocytes; experiment: RNA sequencing and enrichment analysis of BT503-treated podocytes; type: cell-based; details: vs DMSO in the setting of LPS treatment
Source text: RNA sequencing data was processed as previously described (Z. Wang, A. Ma'ayan, (2016) F1000Res 5, 1574). Briefly, sequencing reads were first aligned to the human genome (version hg38) using Spliced Transcripts Alignment to a Reference (STAR 2.4.1c) (A. Dobin et al., (2013) Bioinformatics 29, 15-21). Aligned reads were then quantified to the transcriptome (UCSC hg38 annotation) at the gene level using featureCounts (v1.4.6) (Y. Liao, G. K. Smyth, W. Shi, (2014) Bioinformatics 30, 923-930). Read counts were normalized to count per million (CPM), and differentially expressed genes were identified using BioJupies (A. Lachmann et al., (2018) Nat Commun 9, 1366). Enrichment analyses of the differentially expressed genes were performed with Enrichr (33, 66) with WikiPathways (D. N. Slenter et al., (2018) Nucleic Acids Res 46, D661-d667) and KEGG (M. Kanehisa, S. Goto, (2000) Nucleic Acids Res 28, 27-30) databases. Normalized read counts were used to create matrix visualized heat maps on Morpheus by Broad Institute (https://software.broadinstitute.org/morpheus) with hierarchical clustering, sorted by one minus Pearson's correlation and clustered by rows. […]

## CSc1ccc(NC(=O)Nc2ccc(C)nc2)cc1 [BT503]
[1]
  p65 expression (kidney lysates): reduced
[1]; daily for 14 days, vs DMSO
  albuminuria: significantly mitigated the increase in albuminuria
[1]; vs DMSO
  % of glomeruli with focal segmental and global GS lesions: significantly reduced
  glomerular synaptopodin expression: restored
  interstitial fibrosis: reduced interstitial fibrosis
  kidney function (serum urea nitrogen and creatinine): improved kidney function
  podocyte number (WT1+ podocytes per glomerular cross-sectional area): preserved podocyte number
[2]; day 7 and 14 post-NTS treatment, vs DMSO
  albuminuria: significantly less albuminuria
[2]; post-NTS treatment
  p65 expression in the glomeruli: attenuated
[2]; vs DMSO
  glomerular injury (% of glomeruli with FSGS, extracapillary proliferation) and proteinaceous casts: significantly reduced
  glomerular synaptopodin expression: restored
  interstitial fibrosis (masson's trichrome and α-SMA staining): less interstitial fibrosis
  podocyte number (WT1+ podocytes per glomerular cross-sectional area): restored the podocyte number
[3]; LPS-treated podocytes
  nuclear localization of p50 and p65: mitigated this translocation
[3]; vs DMSO in the setting of LPS treatment
  IκBα expression: significantly increased
[4]
  EC50: ~7.1 nM and < 10 nM
[5]
  KLF15-mutant reporter activity: induced KLF15 activity
[6]
  DEGs involved in NF-κB signaling (GSEA, heatmap): downregulation
